Results taken from PMC3227566, “Targeting Acetylcholinesterase: Identification of Chemical Leads by High Throughput Screening, Structure Determination and Molecular Modeling” (PLoS ONE, 2011).
Read-outs that look alike come from different tables or passages of the source.

Target: T1, recombinant hAChE (Homo sapiens, UniProt P22303)
T1 construct: made in house
Experiment: biochemical
Description: A chemical library consisting of 17 500 substances was screened using the colorimetric Ellman assay and recombinant hAChE. The hydrolysis of acetylthiocholine iodide was monitored and the average slope of the positive controls was set to 100% activity. […] Molecules in Set 1 were selected to represent the chemical space according to a Principal Component Analysis (PCA) of the hits' structural and physicochemical features (see section Chemical space of AChE inhibitors, below).
The screening was performed at the Umeå Small Molecule Screening Facility currently incorporated in the screening platform of the Laboratories for Chemical Biology, Umeå (LCBU). Recombinant hAChE was expressed and purified according to previously described methods, [46]. The enzymatic activity was measured using the Ellman assay adapted to a 96-well format. The final assay volume was 200 µL and all measurements were performed in 0.2 mM 5,5′-Dithiobis(2-nitrobenzoic acid) and 1 mM acethylthiocholine iodide in 0.1 M phosphate buffer pH 8.0. […] Stock solutions were prepared in DMSO and transferred to the assay plate using a Biomek NC robotic system (BeckanCoulter). The enzymatic reaction was monitored for 120 seconds using an Infinite M200 plate-reader (Tekan) at a ligand concentration of 50 µM and temperature of 20°C. Each plate contained 80 samples, 14 positive controls and two negative controls. […] Substances reducing the activity by at least 70% were scored as hits. […] For each inhibitor, the enzymatic activity was determined at eight concentrations selected to produce a dose-response curve that was subsequently analyzed using Prism.

[1] = hits with determined crystal structures, mean ± standard deviation of 2–5 determinations, read-out: IC50

T1 sequence (P22303 32-614): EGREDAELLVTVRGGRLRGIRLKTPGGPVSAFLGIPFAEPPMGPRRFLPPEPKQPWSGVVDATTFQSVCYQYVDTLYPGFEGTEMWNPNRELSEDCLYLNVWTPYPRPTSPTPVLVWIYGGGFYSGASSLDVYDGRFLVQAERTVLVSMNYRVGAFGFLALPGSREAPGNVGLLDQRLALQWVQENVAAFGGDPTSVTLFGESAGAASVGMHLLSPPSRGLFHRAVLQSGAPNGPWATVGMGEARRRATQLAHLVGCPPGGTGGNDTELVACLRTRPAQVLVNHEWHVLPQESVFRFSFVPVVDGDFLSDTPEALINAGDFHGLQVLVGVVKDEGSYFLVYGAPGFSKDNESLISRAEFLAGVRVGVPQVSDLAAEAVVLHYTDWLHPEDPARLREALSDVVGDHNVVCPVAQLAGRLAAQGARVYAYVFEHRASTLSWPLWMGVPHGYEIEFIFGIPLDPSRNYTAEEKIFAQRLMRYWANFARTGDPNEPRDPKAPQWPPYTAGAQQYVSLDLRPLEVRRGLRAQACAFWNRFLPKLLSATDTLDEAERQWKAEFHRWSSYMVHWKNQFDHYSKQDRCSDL

**Q.** `CCN(CC)CCCNc1oc(-c2ccc(Cl)cc2)nc1C#N` [Compound C7491] was tested. Which IC50 [1] did it give?
**A.** 21400 ± 1700 nM

**Q.** Which IC50 [1] does the source give for `COc1ccc(C(=O)NC(=S)Nc2ccc(N3CCN(C)CC3)cc2)cc1[N+](=O)[O-]` [Compound C7643] here?
**A.** 540 ± 30 nM

**Q.** With `COC(=O)CSc1nc(C)c(C)c(C)c1C#N` [Compound C5231] as the compound, how does the IC50 [1] read?
**A.** 36000 ± 6300 nM

**Q.** Which IC50 does the source give for `CCN1CCCC1CNC(=O)c1cc([N+](=O)[O-])c(N(C)C)cc1OC` (centres unmarked) [Compound C5685] here?
**A.** 1300 ± 100 nM

**Q.** For `CCN(CC)CCCNc1c([N+](=O)[O-])c(=O)n(C)c2ccccc12` [Compound C6905], which IC50 [1] is on record?
**A.** 2000 ± 100 nM
